Activity calls are given as the source filed them. The calls are words filed in the database; no cut-off is given here.
How the values were obtained:
Mus musculus [1] = test: (§1) Antiinflammatory activity in MOG peptide/complete freund's adjuvant/pertussis toxin-induced C57BL/6 mouse autoimmune encephalomyelitis model assessed as increase in myelin content at 100 mg/kg, ip administered once daily for 40 days measured post last dose by LFB /H and E staining based assay; format: functional, organism-based
Mus musculus [2] = test: Antiinflammatory activity in MOG peptide/complete freund's adjuvant/pertussis toxin-induced C57BL/6 mouse autoimmune encephalomyelitis model assessed as reduction in accumulation of MAC3 positive cells in brain at 100 mg/kg, ip administered once daily for 40 days measured post last dose; format: functional, organism-based
[3] = Tmax in C57BL/6 mouse brain at 100 mg/kg, ip administered as single dose by UPLC-MS analysis; format: ADME, organism-based
[4] = Cmax in C57BL/6 mouse brain at 100 mg/kg, ip administered as single dose by UPLC-MS analysis; format: ADME, organism-based; parameters: dose 100 mg/kg, route intraperitoneal
[5] = AUC (0 to 360 mins) in C57BL/6 mouse brain at 100 mg/kg, ip administered as single dose by UPLC-MS analysis; format: ADME, organism-based; parameters: dose 100 mg/kg, time < 6 hr, route intraperitoneal
[6] = target: T1, Protein-arginine deiminase type-4 (Homo sapiens, UniProt Q9UM07); test: Inhibition of full length recombinant human N-terminal GST-tagged PAD4 expressed in baculovirus infected Sf9 cells using benzoyl arginine ethylester as substrate preincubated for 30 mins followed by substrate addition measured after 30 mins by colorimetric assay
[7] = target: Protein-arginine deiminase type-2 (Mus musculus, UniProt Q08642); test: Inhibition of full length recombinant mouse N-terminal GST-tagged PAD2 expressed in baculovirus infected Sf9 cells using benzoyl arginine ethyl ester as substrate preincubated for 30 mins followed by substrate addition measured after 30 mins by colorimetric assay
Mus musculus [8] = test: Antiinflammatory activity in MOG peptide/complete freund's adjuvant/pertussis toxin-induced C57BL/6 mouse autoimmune encephalomyelitis model assessed as improvement in physical disability at 50 mg/kg, ip administered once daily for 40 days measured daily during compound dosing; format: functional, organism-based
Mus musculus [9] = test: as §1, with “activity” for “activity in”, “reduction” for “increase”, “scar tissue around blood vessels in brain” for “myelin content”, “LFB/H” for “LFB /H”; format: functional, organism-based
[10] = Half life in C57BL/6 mouse serum at 100 mg/kg, ip administered as single dose by UPLC-MS analysis; format: ADME, organism-based
[11] = Elimination rate constant in C57BL/6 mouse brain at 100 mg/kg, ip administered as single dose by UPLC-MS analysis; format: ADME, organism-based
Mus musculus [12] = test: Antiinflammatory activity in MOG peptide/complete freund's adjuvant/pertussis toxin-induced C57BL/6 mouse autoimmune encephalomyelitis model assessed as improvement in physical disability at 100 mg/kg, ip administered once daily for 40 days measured daily during compound dosing; format: functional, organism-based
Mus musculus [13] = test: Neuroprotective activity in CPZ-induced demyelination C57BL/6 mouse model assessed as increase in myelin content at 100 mg/kg, ip dosed daily for 6 weeks measured post last dose by LFB staining based immunohistochemical method; format: functional, organism-based
[14] = Elimination rate constant in C57BL/6 mouse serum at 100 mg/kg, ip administered as single dose by UPLC-MS analysis; format: ADME, organism-based
[15] = AUC (0 to 360 mins) in C57BL/6 mouse serum at 100 mg/kg, ip administered as single dose by UPLC-MS analysis; format: ADME, organism-based; parameters: time < 6 hr, dose 100 mg/kg, route intraperitoneal
Mus musculus [16] = test: as §1, with “reduction” for “increase”, “inflammatory lesions in brain” for “myelin content”, “hematoxylin” for “LFB /H”, “eosin/Luxol-fast blue” for “E”; format: functional, organism-based
Mus musculus [17] = test: Antiinflammatory activity in MOG peptide/complete freund's adjuvant/pertussis toxin-induced C57BL/6 mouse autoimmune encephalomyelitis model assessed as reduction in accumulation of CD3 positive cells in brain at 100 mg/kg, ip administered once daily for 40 days measured post last dose; format: functional, organism-based
[18] = Half life in C57BL/6 mouse brain at 100 mg/kg, ip administered as single dose by UPLC-MS analysis; format: ADME, organism-based
Mus musculus [19] = test: Toxicity in MOG peptide/complete freund's adjuvant/pertussis toxin-induced C57BL/6 mouse autoimmune encephalomyelitis model assessed as change in body weight at 50 mg/kg, ip administered once daily for 40 days measured during compound dosing; format: organism-based; conditions: in vivo, 960 h
[20] = Cmax in C57BL/6 mouse serum at 100 mg/kg, ip administered as single dose by UPLC-MS analysis; format: ADME, organism-based; parameters: dose 100 mg/kg, route intraperitoneal
[21] = Toxicity in MOG peptide/complete freund's adjuvant/pertussis toxin-induced C57BL/6 mouse autoimmune encephalomyelitis model assessed as death at 50 mg/kg, ip administered once daily for 40 days measured during compound dosing (reference value: 20%); format: organism-based; conditions: in vivo, read-out: Activity
[22] = Toxicity in MOG peptide/complete freund's adjuvant/pertussis toxin-induced C57BL/6 mouse autoimmune encephalomyelitis model assessed as death at 100 mg/kg, ip administered once daily for 40 days measured during compound dosing (reference value: 21%); format: organism-based; conditions: in vivo, read-out: Activity
[23] = target: T2, Protein-arginine deiminase type-1 (Homo sapiens) (UniProt Q9ULC6); test: Inhibition of human PAD1 up to 10 mM using benzoyl arginine ethylester as substrate preincubated for 30 mins followed by substrate addition measured after 30 mins by colorimetric assay
T2 sequence (whole entry): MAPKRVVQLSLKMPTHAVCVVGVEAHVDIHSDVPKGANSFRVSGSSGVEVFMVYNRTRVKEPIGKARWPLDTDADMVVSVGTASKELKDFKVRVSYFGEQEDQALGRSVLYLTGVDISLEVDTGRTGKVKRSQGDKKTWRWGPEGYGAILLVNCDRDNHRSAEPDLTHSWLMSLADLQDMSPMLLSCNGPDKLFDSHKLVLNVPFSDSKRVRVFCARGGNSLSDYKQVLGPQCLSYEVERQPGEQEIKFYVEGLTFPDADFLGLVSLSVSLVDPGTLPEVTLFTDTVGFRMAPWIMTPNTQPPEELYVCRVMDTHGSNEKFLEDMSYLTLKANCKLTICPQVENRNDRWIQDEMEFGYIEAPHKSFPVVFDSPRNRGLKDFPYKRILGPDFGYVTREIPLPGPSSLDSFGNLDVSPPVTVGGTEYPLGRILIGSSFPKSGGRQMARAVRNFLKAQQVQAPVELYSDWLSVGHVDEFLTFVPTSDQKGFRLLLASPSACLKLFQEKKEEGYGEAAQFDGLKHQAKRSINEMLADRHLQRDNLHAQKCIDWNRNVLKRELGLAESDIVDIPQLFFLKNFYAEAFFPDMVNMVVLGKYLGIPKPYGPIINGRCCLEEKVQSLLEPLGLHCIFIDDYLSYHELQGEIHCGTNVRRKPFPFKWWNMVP

Mus musculus [24] = test: Antiinflammatory activity in ip dosed MOG peptide/complete freund's adjuvant/pertussis toxin-induced C57BL/6 mouse autoimmune encephalomyelitis model assessed as improvement in physical disability administered once daily for 40 days measured daily during compound dosing; format: functional, organism-based
[25] = Tmax in C57BL/6 mouse serum at 100 mg/kg, ip administered as single dose by UPLC-MS analysis; format: ADME, organism-based
Mus musculus [26] = test: Toxicity in MOG peptide/complete freund's adjuvant/pertussis toxin-induced C57BL/6 mouse autoimmune encephalomyelitis model assessed as change in body weight at 100 mg/kg, ip administered once daily for 40 days measured during compound dosing; format: organism-based; conditions: in vivo, 960 h
[27] = target: T3, Protein-arginine deiminase type-1 (Homo sapiens, UniProt Q9ULC6); test: Inhibition of human PAD1 using BAEE as substrate preincubated for 30 mins followed by substrate addition measured after 30 mins by colorimetric assay
T3 sequence (Q9ULC6 whole entry): T2 sequence (whole entry)

[28] = target: Protein-arginine deiminase type-2 (Mus musculus) (UniProt Q08642); test: Inhibition of full length recombinant mouse N-terminal GST-tagged PAD2 expressed in baculovirus infected Sf9 cells up to 10 mM using benzoyl arginine ethyl ester as substrate preincubated for 30 mins followed by substrate addition measured after 30 mins by colorimetric assay
[29] = target: T1, Protein-arginine deiminase type-4; test: Inhibition of full length recombinant human N-terminal GST-tagged PAD4 expressed in baculovirus infected Sf9 cells up to 10 mM using benzoyl arginine ethylester as substrate preincubated for 30 mins followed by substrate addition measured after 30 mins by colorimetric assay

Chain of Protein-arginine deiminase type-2 (Mus musculus) (Q08642 whole entry): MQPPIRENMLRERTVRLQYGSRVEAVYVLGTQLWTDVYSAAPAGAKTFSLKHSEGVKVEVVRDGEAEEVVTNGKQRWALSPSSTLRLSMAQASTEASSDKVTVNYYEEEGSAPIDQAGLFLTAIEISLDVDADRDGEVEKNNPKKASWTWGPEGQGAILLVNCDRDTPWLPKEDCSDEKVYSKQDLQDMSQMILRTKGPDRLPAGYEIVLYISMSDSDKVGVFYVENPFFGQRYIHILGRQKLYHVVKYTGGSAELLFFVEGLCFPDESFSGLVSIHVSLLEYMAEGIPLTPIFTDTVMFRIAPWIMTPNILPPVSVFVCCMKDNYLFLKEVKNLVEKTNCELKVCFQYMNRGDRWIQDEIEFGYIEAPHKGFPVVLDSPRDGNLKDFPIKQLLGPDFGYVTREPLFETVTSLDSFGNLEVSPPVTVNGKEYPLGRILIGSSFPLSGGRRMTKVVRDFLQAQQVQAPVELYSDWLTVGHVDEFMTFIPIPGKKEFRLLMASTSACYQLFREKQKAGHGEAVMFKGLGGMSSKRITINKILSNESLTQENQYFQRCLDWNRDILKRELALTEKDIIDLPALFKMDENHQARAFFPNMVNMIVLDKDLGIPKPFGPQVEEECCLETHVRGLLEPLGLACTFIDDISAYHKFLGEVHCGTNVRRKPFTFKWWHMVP
Chain of Protein-arginine deiminase type-2 (Q08642 whole entry): as above
T1 sequence (Q9UM07 whole entry): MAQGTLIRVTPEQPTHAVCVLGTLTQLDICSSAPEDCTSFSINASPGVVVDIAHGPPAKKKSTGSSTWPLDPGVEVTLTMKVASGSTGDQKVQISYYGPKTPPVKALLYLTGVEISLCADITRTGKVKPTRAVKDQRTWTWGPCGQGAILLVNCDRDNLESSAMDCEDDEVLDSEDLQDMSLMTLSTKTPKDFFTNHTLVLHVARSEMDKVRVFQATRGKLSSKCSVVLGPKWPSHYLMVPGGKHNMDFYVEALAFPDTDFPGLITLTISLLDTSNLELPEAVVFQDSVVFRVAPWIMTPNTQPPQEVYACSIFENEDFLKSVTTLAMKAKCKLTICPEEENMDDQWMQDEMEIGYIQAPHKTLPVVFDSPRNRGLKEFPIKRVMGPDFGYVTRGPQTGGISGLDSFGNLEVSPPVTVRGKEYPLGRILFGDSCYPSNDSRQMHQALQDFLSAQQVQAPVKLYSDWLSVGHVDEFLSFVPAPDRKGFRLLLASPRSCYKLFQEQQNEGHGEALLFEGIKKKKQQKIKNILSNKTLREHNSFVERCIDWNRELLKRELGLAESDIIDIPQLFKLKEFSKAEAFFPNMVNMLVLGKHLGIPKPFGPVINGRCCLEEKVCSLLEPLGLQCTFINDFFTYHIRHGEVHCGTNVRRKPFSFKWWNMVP

CC1(C)NC(=O)N(CCn2ccnc2)C1=O
Activity (Mus musculus [1]): Active
Activity (Mus musculus [2]): Active
Tmax [3]: 45 min
Cmax [4]: 7.3 ng/mL
AUC(0-t) at 6 h [5]: 12.3 ng·h/mL
Ki [6]: 632 µM
Ki [7]: 4620 µM
Activity (Mus musculus [8]): inactive
Activity (Mus musculus [9]): Active
half-life [10]: 12.6 min
k el [11]: 0.000117 s⁻¹
Activity (Mus musculus [12]): Active
Activity (Mus musculus [13]): Active
k el [14]: 0.000917 s⁻¹
AUC(0-t) at 6 h [15]: 28000 ng·h/mL
Activity (Mus musculus [16]): Active
Activity (Mus musculus [17]): Active
half-life [18]: 99 min
Activity (Mus musculus [19]): Non-Toxic
Cmax [20]: 79900 ng/mL
mortality at 960 h [21]: 29%
mortality at 960 h [22]: 0%
inhibition [23]: inactive
Activity (Mus musculus [24]): Dose-dependent effect
Tmax [25]: 5 min
Activity (Mus musculus [26]): Non-Toxic

CC1(C)NC(=O)N(CN2CCNCC2)C1=O
Ki [6]: 183 µM
Ki [7]: 179 µM
Activity (Mus musculus [12]): Active
Ki [27]: 445 µM
Activity (Mus musculus [26]): Non-Toxic

CC1(C)NC(=O)N(CCn2ccnn2)C1=O
inhibition [28]: inactive
inhibition [29]: inactive
inhibition [23]: inactive

CN1CCN(CCN2C(=O)NC(C)(C)C2=O)CC1
inhibition [28]: inactive
inhibition [29]: inactive
inhibition [23]: inactive

Cc1nccn1CCN1C(=O)NC(C)(C)C1=O
inhibition [28]: inactive
Ki [27]: 2420 µM
inhibition [29]: inactive

CC1(C)NC(=O)N(CCN2CCCC2)C1=O
Ki [6]: 4640 µM
inhibition [28]: inactive
inhibition [23]: inactive

CC(C)c1nccn1CCN1C(=O)NC(C)(C)C1=O
inhibition [28]: inactive
inhibition [29]: inactive
inhibition [23]: inactive

CC1(C)NC(=O)N(CCn2cncn2)C1=O
inhibition [28]: inactive
inhibition [29]: inactive
inhibition [23]: inactive

CC1(C)NC(=O)N(CCN2CCNCC2)C1=O
Ki [7]: 714 µM
inhibition [29]: inactive
inhibition [23]: inactive

CC1(C)NC(=O)N(CCn2cncc2CO)C1=O
inhibition [28]: inactive
inhibition [29]: inactive
inhibition [23]: inactive

CC1(C)NC(=O)N(CCc2nnn[nH]2)C1=O
Activity (Mus musculus [2]): Active
Ki [7]: 30 µM
Activity (Mus musculus [12]): Active
Activity (Mus musculus [16]): Active
Activity (Mus musculus [17]): Active
Ki [27]: 384 µM
mortality at 960 h [22]: 8%
Activity (Mus musculus [26]): Non-Toxic

Cc1cnc(C)n1CCN1C(=O)NC(C)(C)C1=O
inhibition [28]: inactive
inhibition [29]: inactive
inhibition [23]: inactive

CC1(C)NC(=O)N(CCN2CCOCC2)C1=O
Ki [6]: 1430 µM
Ki [27]: 602 µM

Cc1cn(CCN2C(=O)NC(C)(C)C2=O)cn1
inhibition [28]: inactive
inhibition [29]: inactive
inhibition [23]: inactive

— ChEMBL document CHEMBL4028813, “Inhibitors of protein arginine deiminases and their efficacy in animal models of multiple sclerosis” (Bioorg Med Chem, 2017)
